Measurements reported in PubChem BioAssay (NCI).
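1) Cells in 96-well plates. 2) Compound, 48 h, 5 concentrations. 3) Linear interpolation between surrounding doses. 4) Unreached endpoint = highest concentration. The concentration for 50% growth inhibition is given as GI50. TGI: total growth inhibition.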

Columns and labels:
Assay in all cases: NCI tumour cell line growth inhibition, 48 h
[1] = tested on: CCRF-CEM leukemia
[2] = tested on: HCT-15 colon
[3] = tested on: OVCAR-8 ovarian
[4] = tested on: DLD-1 colon
[5] = tested on: DMS 114 small cell lung
[6] = tested on: DMS 273 small cell lung
[7] = tested on: HOP-18 NSCLC
[8] = tested on: KM20L2 colon
[9] = tested on: M19-MEL melanoma
[10] = tested on: P388 leukemia
[11] = tested on: P388/ADR leukemia
[12] = tested on: SN12K1 renal
[13] = tested on: XF 498 CNS
[14] = tested on: LXFL 529 NSCLC
[15] = tested on: SNB-78 CNS

Structure (SMILES)	TGI [1] [µM]	TGI [2] [µM]	TGI [3] [µM]	further results
O=C(NCc1ccc(Cl)c(Cl)c1)c1nc2ccccc2nc1NCc1ccc(Cl)c(Cl)c1	> 100	> 100	> 100	–
O=[N+]([O-])c1cccc2c1[nH]c1c(-c3ccccc3)nccc12	21.9	> 38.5	9.32	TGI [4]: > 48.9 µM; TGI [5]: 5.75 µM; TGI [6]: 7.58 µM; TGI [7]: 2.82 µM; TGI [8]: 10.8 µM; TGI [9]: 6.14 µM; TGI [10]: 9.75 µM; TGI [11]: 11.7 µM; TGI [12]: 8.11 µM; TGI [13]: 11.7 µM
O=C(Nc1nc2ccc([N+](=O)[O-])cc2s1)c1cc([N+](=O)[O-])ccc1Cl	–	8.3	9.57	–
NNC(=O)COc1nc(-c2cccs2)nc2ccc(I)cc12	88.4	56	> 100	GI50 [1]: 20 µM
NS(=O)(=O)c1cc2c(cc1Cl)NC(C(=O)NNC(=O)c1ccncc1)=NS2(=O)=O	> 100	> 100	> 100	TGI [4]: > 100 µM; TGI [5]: > 100 µM; TGI [6]: > 100 µM; TGI [7]: > 100 µM; TGI [8]: > 100 µM; TGI [14]: > 100 µM; TGI [9]: > 100 µM; TGI [13]: > 100 µM
CC1SCCc2nc3ccccc3n21 (stereo unspecified)	> 100	> 100	> 100	–
Cn1c(=O)c2c(n(C)c1=O)n1c(=O)c3ccccc3nc1n2C	> 100	> 100	> 100	–
CCOP(=O)(OCC)/C(C#N)=C(\C)c1ccco1	> 10	> 10	> 10	–
COc1ccc(-c2cc(-c3ccc(Nc4ccnc5cc(C(F)(F)F)ccc45)cc3)nc(N)c2C#N)c2ccccc12	–	> 100	–	–
Cc1c(N(Cc2ccccc2)Cc2ccccc2)nc(S(C)(=O)=O)nc1S(C)(=O)=O	5.15	6.4	3.29	TGI [4]: 3.59 µM; TGI [5]: 3.24 µM; TGI [6]: 4.29 µM; TGI [7]: 17.3 µM; TGI [8]: 3.28 µM; TGI [14]: 3.45 µM; TGI [9]: 2.89 µM; TGI [15]: 4.81 µM; TGI [13]: 3.16 µM
CCCCSC1=N/C(=C\c2ccccc2O)C(Cl)=N1	–	> 100	> 100	–
O=C1CSC(c2cccc(Oc3ccccc3)c2)N1c1cc(Cl)ccc1Cl (stereo unspecified)	> 100	58.6	62.5	–
CC(C)S1=C2C(=O)CC(C)(C)CC2=Nc2ccccc21 (stereo unspecified)	> 100	> 100	> 100	–
Cn1c(=O)c(C#N)c(O)c2cc3ccccc3nc21	> 100	> 100	> 100	TGI [4]: > 100 µM; TGI [5]: > 100 µM; TGI [6]: > 100 µM; TGI [7]: > 100 µM; TGI [14]: > 100 µM; TGI [9]: > 100 µM; TGI [15]: > 100 µM; TGI [13]: > 100 µM
Nn1c(=S)[nH]nc(/C=C/c2c(O)ccc3ccccc23)c1=O	9.7	17.9	4.81	–
COc1ccc(-c2cc(=O)c3cc(OC)c(OC)cc3[nH]2)cc1OC	> 100	> 100	> 100	–
Nc1cc(O)c2cc(N=Nc3ccc(N=Nc4ccc(N=Nc5ccc6cc(S(=O)(=O)O)cc(S(=O)(=O)O)c6c5)c5ccccc45)c4cc(S(=O)(=O)O)ccc34)c(S(=O)(=O)O)cc2c1	> 100	> 100	> 100	TGI [4]: > 100 µM; TGI [6]: > 100 µM; TGI [7]: > 100 µM; TGI [9]: > 100 µM; TGI [10]: > 100 µM; TGI [12]: > 100 µM; TGI [15]: > 100 µM; TGI [13]: > 100 µM
O=C(CCc1ccccc1)NCCc1ccc(O)c(O)c1	27.1	> 100	> 85.6	–
O=C(Cn1c(-c2ccccc2)cc2ccccc21)N1CCOCC1	> 100	> 100	> 100	–
COc1cc(O)c2c(=O)c(O)c(-c3ccc(O)c(O)c3)oc2c1	33	> 100	75.9	–
Nc1c(/C=C/c2cc3cc(C4=NCCN4)ccc3o2)[nH]c2cc(C3=NCCN3)ccc12	–	> 100	> 100	–
CC1=C(C(=O)OC(C)(C)C)C(c2ccc([N+](=O)[O-])cc2)C(C(=O)OC(C)(C)C)=C(C)N1	–	62.5	42.3	–
Nc1nc(Nc2cc(F)c(Cl)c(F)c2)cc(=O)[nH]1	> 100	> 100	> 100	–
CC(=O)OC/C=C/Cn1nc(Br)c(=O)[nH]c1=O	> 100	> 100	> 100	–
CO[C@@H](c1ccccc1)[C@H](O)[C@@](O)(c1ccccc1)P(=O)(OC)OC	> 100	> 100	> 100	–
Cc1ccc(C(=O)C2CC3(CCC2(O)c2ccc(C)cc2)CC(=O)Nc2ccccc2C3=O)cc1 (stereo unspecified)	> 100	> 100	> 100	–
N=c1sc(N2CCOCC2)nn1CC(=O)c1ccccc1	> 100	> 100	> 100	–
Cc1ccc(C)c(C(=O)CC2OC(O)C(Cl)C2Cl)c1 (stereo unspecified)	> 100	> 100	33.6	TGI [4]: 34.4 µM; TGI [5]: > 100 µM; TGI [6]: > 100 µM; TGI [7]: > 100 µM; TGI [8]: > 100 µM; TGI [14]: 32.5 µM; TGI [9]: > 100 µM; TGI [15]: > 100 µM; TGI [13]: > 100 µM
